Data as given in ChEMBL document CHEMBL1201862, “PubChem BioAssay data set” (2004).
Activity calls are given as the source filed them.

How the values were obtained:
[1] = molecular target: Nuclear receptor subfamily 5 group A member 2 (Homo sapiens, UniProt O00482); assay type: functional, cell-based;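 note: HEK293T cells transfected with LRH-1 and a StAR promoter luciferase reporter; potency for inhibitors that lower LRH-1 driven reporter light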
[2] = molecular target: Steroidogenic factor 1 (Homo sapiens, UniProt Q13285); experiment: Counterscreen for inverse agonists of the liver receptor homolog-1 (LRH-1; NR5A2): Luminescence-based cell-based high throughput dose response assay to identify inverse agonists of the Steroidogenic Factor 1 Nuclear Receptor (SF1; NR5A1).; assay type: functional
[3] = StAR promoter reporter inhibition counter-screen, dose response, counter-screen for LRH-1 inverse agonist project, cell-based, luminescence, luciferase reporter (AID 651969); assay type: functional
[4] = molecular target: Beta-galactosidase (Escherichia coli, UniProt Q8VNN2); experiment: Dose response counterscreen for EBI2 assay utilizing the enzyme, b-galactosidase.; assay type: functional
[5] = system: BJ; experiment: cytotoxicity toward BJ-TERT fibroblasts, dose response, cell-based, RAS-independent, luminescence (AID 1933); assay type: functional; conditions: Homo sapiens
[6] = off-target signal loss in HeLa-CEM21 co-culture – HeLa F-luc CTL cells, cherry-picked, counter-screen for HIV-1 Env fusion inhibitor project, dose response (AID 652040); assay type: functional, cell-based;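 note: potency for signal decrease marking cytotoxic or nonspecific inhibition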
[7] = cytotoxicity toward DRD oncogenic fibroblasts, dose response, cell-based, non-viral oncogenic, luminescence (AID 1934); assay type: functional; conditions: Homo sapiens
[8] = system: BJ; experiment: cytotoxicity toward BJ-TERT-LT-ST fibroblasts, dose response, cell-based, RAS-independent, luminescence (AID 1935); assay type: functional; conditions: Homo sapiens;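 note: BJ fibroblasts immortalized with TERT plus LT and ST oncogenes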
[9] = inhibitors of HIV Env-driven cell fusion, dose response, cherry-pick (AID 652057); assay type: functional, cell-based
[10] = inhibitors of clade B AD8 Env fusion, dose response, cell-based, cherry-pick (AID 652062); assay type: functional;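 note: luciferase signal from cell-cell fusion driven by HIV-1 clade B AD8 Env; potency is for inhibitors of fusion seen as a drop in luminescence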
[11] = CEM21 lymphoblast cell cytotoxicity, dose response, cytotoxicity control for viral fusion inhibitor project, CellTiter-Glo luminescence, cherry-picked (AID 652042); assay type: functional, cell-based;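 note: potency for signal decrease meaning cytotoxicity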
[12] = system: BJ; experiment: cells; assay type: functional, cell-based; conditions: Homo sapiens
[13] = system: BJ; experiment: cytotoxicity toward Ras-transformed BJeLR fibroblasts, dose response, cell-based, alamar blue fluorescence, cherrypicked samples (AID 2631); assay type: functional; conditions: Homo sapiens;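 note: confirmatory dose-response assay in RAS-dependent BJ fibroblasts engineered with TERT, LT and ST, with cytotoxicity read by fluorescence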
[14] = molecular target: Glucose-6-phosphate 1-dehydrogenase (Homo sapiens, UniProt P11413); experiment: human G6PD enzyme inhibitors, dose response, selectivity assay for P. falciparum G6PD inhibitor project, biochemical, fluorescence (AID 504792); assay type: functional
[15] = HeLa cell cytotoxicity, dose response, cytotoxicity control for MgcRacGAP inhibitor project (AID 624300); assay type: functional
[16] = molecular target: T1, Rac GTPase-activating protein 1 (Homo sapiens, UniProt Q9H0H5); experiment: MgcRacGAP GTPase-activating activity inhibitors, confirmation, biochemical, ADP Hunter fluorescence, primary and confirmatory (AID 624330); assay type: functional
T1 sequence (Q9H0H5 whole entry): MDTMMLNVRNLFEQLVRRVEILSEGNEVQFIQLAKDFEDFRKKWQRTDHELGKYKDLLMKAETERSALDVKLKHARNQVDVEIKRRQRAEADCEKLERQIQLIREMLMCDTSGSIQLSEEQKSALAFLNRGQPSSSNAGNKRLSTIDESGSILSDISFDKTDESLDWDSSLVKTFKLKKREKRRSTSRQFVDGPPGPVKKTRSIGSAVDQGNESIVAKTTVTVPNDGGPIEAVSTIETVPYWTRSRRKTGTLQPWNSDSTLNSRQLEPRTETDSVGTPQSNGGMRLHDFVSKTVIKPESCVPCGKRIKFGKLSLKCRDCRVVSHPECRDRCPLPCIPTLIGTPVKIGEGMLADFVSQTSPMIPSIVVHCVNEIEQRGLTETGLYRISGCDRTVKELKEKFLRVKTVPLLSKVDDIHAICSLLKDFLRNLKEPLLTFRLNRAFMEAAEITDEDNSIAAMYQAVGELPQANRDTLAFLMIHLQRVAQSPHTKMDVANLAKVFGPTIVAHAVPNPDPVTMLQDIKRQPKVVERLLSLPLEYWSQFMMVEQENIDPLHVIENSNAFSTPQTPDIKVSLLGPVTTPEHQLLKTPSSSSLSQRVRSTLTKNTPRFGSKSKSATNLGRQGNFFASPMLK

[17] = molecular target: Mu-type opioid receptor (Homo sapiens, UniProt P35372); assay type: functional, cell-based;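 note: U2OS cells with beta-arrestin recruitment to OPRM1 by beta-gal complementation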
[18] = molecular target: 5-hydroxytryptamine receptor 2A (Mus musculus, UniProt P35363); assay type: functional, cell-based;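 note: CHO-K1 cells with tagged receptor and beta-arrestin; agonist potency measured as compound-induced activation of the receptor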
[19] = molecular target: T2, Zinc finger protein mex-5 (Caenorhabditis elegans, UniProt Q9XUB2); experiment: MEX-5/TCR-2 RNA interaction inhibitors, dose response, biochemical, C. elegans, fluorescence polarization (AID 1960)
T2 sequence (Q9XUB2 whole entry): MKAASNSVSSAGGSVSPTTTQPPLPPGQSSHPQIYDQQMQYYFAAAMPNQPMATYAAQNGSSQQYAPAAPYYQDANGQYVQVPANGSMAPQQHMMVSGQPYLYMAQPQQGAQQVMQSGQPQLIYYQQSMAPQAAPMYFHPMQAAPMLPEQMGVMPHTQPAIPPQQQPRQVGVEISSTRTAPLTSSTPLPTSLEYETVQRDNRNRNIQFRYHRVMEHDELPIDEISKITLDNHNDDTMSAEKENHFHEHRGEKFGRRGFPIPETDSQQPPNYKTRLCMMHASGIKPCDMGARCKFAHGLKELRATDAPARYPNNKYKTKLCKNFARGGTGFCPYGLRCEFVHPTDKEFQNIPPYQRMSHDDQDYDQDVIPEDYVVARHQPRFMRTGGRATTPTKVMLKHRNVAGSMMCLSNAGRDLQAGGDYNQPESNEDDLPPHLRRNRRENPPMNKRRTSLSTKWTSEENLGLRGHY

[20] = molecular target: T3, RNA-binding protein pos-1 (Caenorhabditis elegans, UniProt G5EF15); experiment: inhibitors of POS-1/mex-3 RNA binding, dose response, biochemical, fluorescence polarization (AID 1964);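 note: purified POS-1 fused to maltose binding protein made in E. coli; potency of compounds blocking POS-1 binding to fluorescent RNA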
T3 sequence (G5EF15 whole entry): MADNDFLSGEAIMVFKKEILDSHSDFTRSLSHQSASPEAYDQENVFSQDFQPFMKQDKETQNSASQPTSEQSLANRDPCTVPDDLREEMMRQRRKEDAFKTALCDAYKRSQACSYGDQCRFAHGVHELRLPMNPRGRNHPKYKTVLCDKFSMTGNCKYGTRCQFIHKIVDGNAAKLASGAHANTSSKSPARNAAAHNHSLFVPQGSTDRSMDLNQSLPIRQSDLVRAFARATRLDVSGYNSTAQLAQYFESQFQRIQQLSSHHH

[21] = Luminescence Cell-Based Dose Response HTS to Identify Activators of Luciferase Translation or Activity in H4 […] Cells. [Related pubchem assays: 1829 (Project Summary), 1814 (Primary HTS)]; assay type: functional
[22] = molecular target: T4, DNA repair and recombination protein RAD54-like (Homo sapiens, UniProt Q92698); experiment: inhibitors of human RAD54 branch migration, confirmation, biochemical, fluorescence, cherry-picked samples, dose series (AID 651657); assay type: functional
T4 sequence (Q92698 whole entry): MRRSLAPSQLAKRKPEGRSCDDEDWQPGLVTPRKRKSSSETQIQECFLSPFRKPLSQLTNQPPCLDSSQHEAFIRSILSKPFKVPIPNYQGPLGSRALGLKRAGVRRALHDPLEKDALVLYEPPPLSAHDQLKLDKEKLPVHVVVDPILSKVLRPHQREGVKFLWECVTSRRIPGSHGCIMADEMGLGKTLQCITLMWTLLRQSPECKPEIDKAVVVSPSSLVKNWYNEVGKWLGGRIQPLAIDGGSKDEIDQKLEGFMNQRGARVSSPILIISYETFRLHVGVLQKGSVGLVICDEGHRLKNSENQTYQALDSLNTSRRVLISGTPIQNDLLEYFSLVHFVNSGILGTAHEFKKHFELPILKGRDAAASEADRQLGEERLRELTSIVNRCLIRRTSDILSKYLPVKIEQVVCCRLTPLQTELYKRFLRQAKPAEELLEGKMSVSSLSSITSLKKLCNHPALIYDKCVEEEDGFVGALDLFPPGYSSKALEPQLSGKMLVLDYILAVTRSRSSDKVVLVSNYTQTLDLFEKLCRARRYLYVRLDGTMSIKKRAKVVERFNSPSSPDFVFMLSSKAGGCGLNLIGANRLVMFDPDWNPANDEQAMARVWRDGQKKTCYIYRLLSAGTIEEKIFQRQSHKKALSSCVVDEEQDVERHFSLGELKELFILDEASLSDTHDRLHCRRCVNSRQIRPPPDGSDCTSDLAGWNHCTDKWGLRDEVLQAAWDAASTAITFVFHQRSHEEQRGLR

[23] = molecular target: SWI/SNF-related matrix-associated actin-dependent regulator of chromatin subfamily A member 2 (Homo sapiens, UniProt P51531); experiment: Luminescence-based cell-based high throughput dose response assay to identify activators of the function of SWI/SNF related, matrix associated, actin dependent regulator of chromatin, subfamily a, member 2 (SMARCA2, BRM).; assay type: functional
[24] = Counterscreen for activators of the function of SWI/SNF related, matrix associated, actin dependent regulator of chromatin, subfamily a, member 2 (SMARCA2, BRM): Luminescence-based cell-based high throughput dose response assay to identify non-selective compounds using the VP16 reporter assay.; assay type: functional
[25] = DNA binding of candidate compounds, dose response, artefact control for RAD54 inhibitor project, biochemical, fluorescence polarization, cherry-pick (AID 651673); assay type: functional
[26] = system: H4; experiment: Luminescence Cell-Based Dose Response HTS to Identify Activators of 5'UTR Stem-Loop Driven Prion Protein mRNA Translation in H4 Neuroglioblastoma Cells. [Related pubchem assays: 1829 (Project Summary), 1814 (Primary HTS)]; assay type: functional; conditions: Homo sapiens
[27] = molecular target: T5, DNA repair protein RAD52 homolog (Homo sapiens, UniProt P43351); assay type: functional, biochemical
T5 sequence (P43351 whole entry): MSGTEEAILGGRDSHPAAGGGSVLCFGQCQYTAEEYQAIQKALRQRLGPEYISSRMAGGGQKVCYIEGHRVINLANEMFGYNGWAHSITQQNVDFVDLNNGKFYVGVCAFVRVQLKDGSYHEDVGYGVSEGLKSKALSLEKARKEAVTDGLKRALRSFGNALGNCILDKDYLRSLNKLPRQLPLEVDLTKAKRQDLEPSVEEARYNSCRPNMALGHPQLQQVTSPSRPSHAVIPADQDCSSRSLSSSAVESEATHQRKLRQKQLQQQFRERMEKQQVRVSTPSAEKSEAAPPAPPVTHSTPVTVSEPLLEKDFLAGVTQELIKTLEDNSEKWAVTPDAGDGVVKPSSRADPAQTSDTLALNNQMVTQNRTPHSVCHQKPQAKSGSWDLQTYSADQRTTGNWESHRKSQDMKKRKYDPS

[28] = cells; assay type: functional, cell-based
[29] = cells; assay type: functional, cell-based; remark: listed apart in the source

Chain of Beta-galactosidase (Q8VNN2 whole entry): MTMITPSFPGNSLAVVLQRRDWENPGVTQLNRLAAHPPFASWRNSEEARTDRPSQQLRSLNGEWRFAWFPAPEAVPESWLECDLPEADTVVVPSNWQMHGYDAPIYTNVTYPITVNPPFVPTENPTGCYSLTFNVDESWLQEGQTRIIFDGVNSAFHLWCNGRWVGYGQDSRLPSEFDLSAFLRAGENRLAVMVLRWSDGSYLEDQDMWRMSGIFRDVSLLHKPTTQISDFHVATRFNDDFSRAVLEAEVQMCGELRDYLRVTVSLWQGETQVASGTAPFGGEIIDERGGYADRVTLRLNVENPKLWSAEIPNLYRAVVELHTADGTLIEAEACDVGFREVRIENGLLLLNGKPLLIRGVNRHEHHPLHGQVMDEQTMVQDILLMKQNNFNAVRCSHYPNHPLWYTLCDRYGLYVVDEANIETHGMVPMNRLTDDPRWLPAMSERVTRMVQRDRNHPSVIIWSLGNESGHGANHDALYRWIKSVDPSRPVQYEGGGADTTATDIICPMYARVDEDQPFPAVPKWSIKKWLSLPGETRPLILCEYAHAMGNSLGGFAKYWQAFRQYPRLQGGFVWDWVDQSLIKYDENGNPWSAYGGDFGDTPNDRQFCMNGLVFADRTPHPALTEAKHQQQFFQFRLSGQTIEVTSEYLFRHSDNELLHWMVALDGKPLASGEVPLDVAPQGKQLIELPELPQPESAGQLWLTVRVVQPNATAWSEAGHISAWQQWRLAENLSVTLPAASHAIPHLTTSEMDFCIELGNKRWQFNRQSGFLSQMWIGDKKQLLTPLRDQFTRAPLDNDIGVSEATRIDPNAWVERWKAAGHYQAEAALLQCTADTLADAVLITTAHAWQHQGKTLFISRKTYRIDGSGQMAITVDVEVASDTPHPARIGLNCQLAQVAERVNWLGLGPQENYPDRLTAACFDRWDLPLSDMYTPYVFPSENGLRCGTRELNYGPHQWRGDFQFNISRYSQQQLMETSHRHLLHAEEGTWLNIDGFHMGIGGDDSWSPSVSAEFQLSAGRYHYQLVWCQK
Chain of Steroidogenic factor 1 (Q13285 whole entry): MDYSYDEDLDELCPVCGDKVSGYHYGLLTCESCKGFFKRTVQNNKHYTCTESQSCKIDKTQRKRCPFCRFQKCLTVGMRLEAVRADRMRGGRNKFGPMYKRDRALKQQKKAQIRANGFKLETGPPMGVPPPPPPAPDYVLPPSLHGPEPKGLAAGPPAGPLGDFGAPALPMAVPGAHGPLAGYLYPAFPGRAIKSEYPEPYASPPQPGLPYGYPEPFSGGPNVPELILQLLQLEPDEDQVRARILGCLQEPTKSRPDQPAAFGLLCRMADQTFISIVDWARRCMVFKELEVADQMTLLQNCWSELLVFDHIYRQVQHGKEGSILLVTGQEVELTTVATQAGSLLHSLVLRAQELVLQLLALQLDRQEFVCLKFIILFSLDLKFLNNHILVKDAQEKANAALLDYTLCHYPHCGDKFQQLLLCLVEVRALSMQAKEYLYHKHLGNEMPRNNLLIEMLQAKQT
Chain of Nuclear receptor subfamily 5 group A member 2 (O00482 whole entry): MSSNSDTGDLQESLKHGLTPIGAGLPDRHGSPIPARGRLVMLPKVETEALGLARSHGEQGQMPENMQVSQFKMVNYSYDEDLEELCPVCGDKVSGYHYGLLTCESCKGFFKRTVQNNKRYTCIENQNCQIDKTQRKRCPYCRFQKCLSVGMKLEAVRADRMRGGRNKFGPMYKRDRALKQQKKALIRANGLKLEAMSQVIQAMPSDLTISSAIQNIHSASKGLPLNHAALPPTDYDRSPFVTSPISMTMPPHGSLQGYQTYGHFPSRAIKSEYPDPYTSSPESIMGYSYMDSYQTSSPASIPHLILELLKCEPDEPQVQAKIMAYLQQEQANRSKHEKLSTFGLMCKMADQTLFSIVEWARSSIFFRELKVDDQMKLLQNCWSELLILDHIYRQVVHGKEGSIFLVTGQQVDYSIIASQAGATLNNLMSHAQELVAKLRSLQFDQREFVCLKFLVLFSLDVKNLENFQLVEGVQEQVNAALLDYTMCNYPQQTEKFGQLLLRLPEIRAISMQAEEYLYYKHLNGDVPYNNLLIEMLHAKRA
Chain of Glucose-6-phosphate 1-dehydrogenase (P11413 whole entry): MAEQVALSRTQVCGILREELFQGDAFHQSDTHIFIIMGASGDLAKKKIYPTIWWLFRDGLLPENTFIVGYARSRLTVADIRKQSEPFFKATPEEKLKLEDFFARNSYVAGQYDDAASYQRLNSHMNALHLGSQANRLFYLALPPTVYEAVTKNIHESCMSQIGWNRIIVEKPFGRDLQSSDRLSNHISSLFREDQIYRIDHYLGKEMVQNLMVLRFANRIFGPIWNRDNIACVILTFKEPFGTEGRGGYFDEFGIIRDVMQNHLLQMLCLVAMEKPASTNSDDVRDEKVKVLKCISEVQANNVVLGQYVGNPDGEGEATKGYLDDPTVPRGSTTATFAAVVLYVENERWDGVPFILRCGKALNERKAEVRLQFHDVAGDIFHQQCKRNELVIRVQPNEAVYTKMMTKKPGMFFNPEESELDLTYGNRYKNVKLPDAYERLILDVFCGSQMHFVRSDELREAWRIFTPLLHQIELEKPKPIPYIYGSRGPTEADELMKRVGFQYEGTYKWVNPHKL
Chain of SWI/SNF-related matrix-associated actin-dependent regulator of chromatin subfamily A member 2 (P51531 whole entry): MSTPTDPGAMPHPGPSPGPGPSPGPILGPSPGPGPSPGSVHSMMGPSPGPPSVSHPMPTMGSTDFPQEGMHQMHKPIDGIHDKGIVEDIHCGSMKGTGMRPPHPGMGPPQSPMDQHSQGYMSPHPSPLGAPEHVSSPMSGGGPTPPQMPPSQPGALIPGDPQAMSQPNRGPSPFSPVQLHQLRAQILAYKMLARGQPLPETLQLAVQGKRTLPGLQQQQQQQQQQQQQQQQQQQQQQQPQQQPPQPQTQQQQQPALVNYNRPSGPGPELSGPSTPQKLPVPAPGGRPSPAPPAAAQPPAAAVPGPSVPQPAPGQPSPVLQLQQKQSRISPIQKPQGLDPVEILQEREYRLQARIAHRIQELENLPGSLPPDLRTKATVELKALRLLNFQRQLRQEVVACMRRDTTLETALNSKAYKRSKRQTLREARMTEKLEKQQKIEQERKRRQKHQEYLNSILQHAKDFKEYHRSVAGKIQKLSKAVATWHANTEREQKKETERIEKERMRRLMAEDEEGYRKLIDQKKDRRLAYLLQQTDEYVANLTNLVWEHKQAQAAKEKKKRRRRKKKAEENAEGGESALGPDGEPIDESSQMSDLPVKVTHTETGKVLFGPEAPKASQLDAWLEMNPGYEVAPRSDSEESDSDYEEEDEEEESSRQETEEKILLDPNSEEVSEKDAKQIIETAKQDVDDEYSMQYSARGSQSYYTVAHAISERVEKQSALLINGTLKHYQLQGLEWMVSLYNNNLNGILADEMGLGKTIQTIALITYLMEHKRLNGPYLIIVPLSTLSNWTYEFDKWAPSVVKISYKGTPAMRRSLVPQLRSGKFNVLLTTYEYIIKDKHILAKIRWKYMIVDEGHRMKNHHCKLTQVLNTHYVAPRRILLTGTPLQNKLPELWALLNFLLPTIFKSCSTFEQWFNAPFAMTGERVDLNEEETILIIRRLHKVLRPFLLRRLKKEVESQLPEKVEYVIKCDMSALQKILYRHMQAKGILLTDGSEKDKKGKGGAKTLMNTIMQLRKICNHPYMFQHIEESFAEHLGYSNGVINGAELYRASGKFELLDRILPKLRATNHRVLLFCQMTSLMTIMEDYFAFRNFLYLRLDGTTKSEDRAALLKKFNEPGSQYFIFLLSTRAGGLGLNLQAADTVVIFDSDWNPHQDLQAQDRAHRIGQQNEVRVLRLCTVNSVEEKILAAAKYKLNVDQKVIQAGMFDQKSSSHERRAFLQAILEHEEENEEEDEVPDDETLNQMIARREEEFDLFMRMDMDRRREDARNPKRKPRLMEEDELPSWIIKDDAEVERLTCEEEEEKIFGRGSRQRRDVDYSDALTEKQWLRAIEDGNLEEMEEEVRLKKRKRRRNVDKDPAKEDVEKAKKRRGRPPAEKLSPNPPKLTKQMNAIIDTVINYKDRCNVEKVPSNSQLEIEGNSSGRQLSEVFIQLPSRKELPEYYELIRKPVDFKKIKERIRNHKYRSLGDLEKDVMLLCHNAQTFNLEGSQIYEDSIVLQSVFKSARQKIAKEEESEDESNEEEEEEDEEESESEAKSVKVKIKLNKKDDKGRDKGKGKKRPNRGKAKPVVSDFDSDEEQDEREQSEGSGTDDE
Chain of 5-hydroxytryptamine receptor 2A (P35363 whole entry): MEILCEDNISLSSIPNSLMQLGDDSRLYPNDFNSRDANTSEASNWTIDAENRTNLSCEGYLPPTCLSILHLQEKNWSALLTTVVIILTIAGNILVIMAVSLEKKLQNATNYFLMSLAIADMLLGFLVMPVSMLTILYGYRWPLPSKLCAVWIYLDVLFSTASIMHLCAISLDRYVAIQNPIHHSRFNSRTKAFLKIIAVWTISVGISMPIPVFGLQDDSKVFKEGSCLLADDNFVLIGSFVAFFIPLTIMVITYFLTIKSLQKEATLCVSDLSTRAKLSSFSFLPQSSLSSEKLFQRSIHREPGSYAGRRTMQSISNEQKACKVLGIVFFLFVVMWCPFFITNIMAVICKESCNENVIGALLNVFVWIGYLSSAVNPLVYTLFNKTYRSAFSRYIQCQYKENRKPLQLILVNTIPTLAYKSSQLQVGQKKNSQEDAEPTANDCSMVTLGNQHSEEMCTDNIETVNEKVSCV
Chain of Mu-type opioid receptor (P35372 whole entry): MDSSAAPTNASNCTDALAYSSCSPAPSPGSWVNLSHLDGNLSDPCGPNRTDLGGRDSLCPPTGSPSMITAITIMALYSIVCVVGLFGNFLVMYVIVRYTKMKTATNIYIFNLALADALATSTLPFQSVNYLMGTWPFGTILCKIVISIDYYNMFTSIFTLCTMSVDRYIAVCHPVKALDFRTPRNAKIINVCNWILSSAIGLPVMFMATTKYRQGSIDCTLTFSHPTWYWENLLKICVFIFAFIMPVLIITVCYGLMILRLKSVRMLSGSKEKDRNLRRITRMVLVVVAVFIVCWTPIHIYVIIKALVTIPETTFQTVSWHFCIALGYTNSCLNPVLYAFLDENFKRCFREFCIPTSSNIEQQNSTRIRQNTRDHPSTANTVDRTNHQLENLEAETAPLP

With `COc1ccc(CCNC(=O)COC(=O)C23CC4CC(CC(C4)C2)C3)cc1` the IC50 [1] was 28.6 µM (inactive), the IC50 [2] was 2.17 µM (active) and the IC50 [3] was 35.9 µM (inactive).

For `O=C(/C=C/c1ccc(Cl)cc1)N1CCN(c2ccccc2[N+](=O)[O-])CC1`, the IC50 [4] was > 80 µM (inactive).

With `COc1ccc2nc(O)c(CN(Cc3cccs3)S(=O)(=O)c3cccc4nsnc34)cc2c1` the EC50 [5] was 21.1 µM (active), the AC50 [6] was 16.9 µM (active) and the EC50 [7] was 14.5 µM (active). For the same compound, the EC50 [8] was > 150 µM (not active), the AC50 [9] was 4.12 µM (active) and the AC50 [10] was 3.31 µM (active). The AC50 [11] was 38.4 µM (active), the EC50 [12] was 25.6 µM (inconclusive) and the EC50 [13] was 1.62 µM (active).

For `Cn1c(=O)c2c(nc(S)n2CCCc2ccccc2)n(C)c1=O`, the IC50 [14] was 60.7 µM (inactive), the CC50 [15] was 100 µM (active) and the IC50 [16] was 16.1 µM (active).

With `Cc1cccc(CN2CCN(c3ccccn3)CC2)c1` the EC50 [17] was 92.5 µM (inactive) and the EC50 [18] was 0.128 µM (active).

With `Cc1nn(Cc2ccccc2)c(C)c1C(=O)OCC(=O)Nc1ccccc1SCC#N` the IC50 [1] was 1.33 µM (active), the IC50 [2] was 2.41 µM (active) and the IC50 [3] was 35.9 µM (inactive).

For `O=C1NC(=O)N(c2ccccc2)C(=O)/C1=C/c1coc2ccc(O)cc2c1=O`, the EC50 [19] was > 300 µM (not active), the CC50 [15] was 100 µM (active) and the EC50 [20] was > 300 µM (not active). The IC50 [16] was 110 µM (active).

In the case of `CCN(CC)CCCNc1nc2ccccc2c2nc(-c3ccncc3)nn12`, the EC50 [21] is reported as 16.5 µM (active), the AC50 [22] is reported as 6.19 µM (active) and the EC50 [23] is reported as 32.5 µM (inactive). For the same compound, the EC50 [24] was > 91.2 µM (inactive), the AC50 [25] was 40.4 µM (active) and the EC50 [26] was > 120 µM (not active). For the same compound, the AC50 [27] was 10.4 µM (active).

With `CN(Cc1ccc(F)cc1)C(=O)COc1ccc2ccccc2c1` the IC50 [4] was > 80 µM (inactive).

For `Oc1cc(C=NNc2ccccc2)nc(O)n1`, the IC50 [28] was > 29.9 µM (inactive) and the EC50 [29] was > 29.9 µM (inactive).

In the case of `Cc1cc(C)c2c(=O)n3c(nc2c1)C(CC(C)C)NC(=O)c1cc2ccccc2cc1-3` (stereo unspecified), the IC50 [4] is reported as > 80 µM (inactive).
